Assays:
[1] = KM-34 capacity to reduce DPPH radicals; format: biochemical; settings: DPPH 100 μM, 30 minutes of reaction; read-out: IC50, reduction of DPPH radicals
Experimental: FIG. 1. Percentage reduction of DPPH (100 μM) by KM-34 (5-400 μM) was determined by changing in the absorbance at 550 nm from a target containing only DPPH and vehicle (zero concentration of KM −34 or AA), after 30 minutes of reaction. Values are expressed as the mean ± SD (n=3). *P<0.05 with respect to the vehicle.
One of the most commonly used methods to estimate antioxidant activity is to evaluate the ability of different compounds to reduce DPPH radicals, which can be determined spectrophotometrically (Brand-Williams et al., 1995). […] Electron delocalization causes the intense violet coloration of the DPPH radical form when it is prepared in ethanol solution (Molyneux et al., 2004).
The IC 50 value obtained for KM was approximately 2.4 times lower than that obtained for ascorbic acid (AA) used as the reference compound.

[2] = tested on: transient occlusion of the common carotid arteries; assay: Vascular dementia model (transient occlusion of common carotid arteries), Morris maze; format: in vivo, male Swiss albino mice; settings: JM-20 4 mg/kg p.o., 1 hour after reperfusion and all days of the test; vs animals without treatment
Experimental: As a model of vascular dementia, the animals (male Swiss albino mice) underwent transient occlusion of the common carotid arteries for 20 minutes and cognitive impairment was evaluated through the Morris labyrinthine assay. […] As a model of permanent cortical ischemia, thermo-coagulation of the pials arteries was induced and the percentage of asymmetry was quantified.

Structure (SMILES) | IC50 [1] [µM] | Escape latency time, Morris maze [2]
O=C1O[C@H]([C@@H](O)CO)C(O)=C1O [AA, ascorbic acid, reference compound] | 38.7 | –
CCOC(=O)C1=C(C)NC2=C(C=Nc3ccccc3N2)C1c1ccccc1[N+](=O)[O-] (centres unmarked) [JM-20, 3-ethoxycarbonyl-2-methyl-4-(2-nitrophenyl)-4,11-dihydro-1H-pyrido[2,3-b][1,5]benzodiazepine] | – | significantly (p<0.05)
